ChEMBL document CHEMBL3507680, “University of Dundee, Gates Library screen for HepG2 cell viability”

experiment: Human HepG2 cell viability assay in 384 well format; assay type: toxicity, cell-based; parameters: dose 125 nL, time 70.5 hour; cytotoxicity at 70.5 h: concentration not given beside the values; settings: HepG2 cells, read-out: Inhibition

Point of comparison: `COc1cc(CNc2cc(-c3ccoc3C)nn2CCO)ccc1F`, cytotoxicity at 70.5 h 11.9%. Against it:
- CC(C)N(C)S(=O)(=O)c1ccc2c(c1)CCN(C(=O)c1cccnn1)C2 — lower, -13.5%
- NCC(=O)N1CCCC(c2ccnc(Nc3cnccn3)n2)C1 (configuration not stated) — lower, -7.18%
- CN(C)CCN(Cc1ccccn1)Cc1ccnn1C1CCCCO1 (configuration not stated) — lower, -2.87%
- CCc1ncc(CN[C@@H]2CCCN(C(C)=O)[C@H]2c2ccc(C)s2)cn1 — lower, -6.59%
- COc1ccccc1NC(=O)c1[nH]nc(C(C)C)c1Br — lower, -3.43%
- Cc1noc2ncc(C(=O)N3CCCC(n4ccnc4C)C3)cc12 (configuration not stated) — lower, -7.39%
- COc1ncccc1NC(=O)NC(C)c1nncn1C (configuration not stated) — lower, -5.01%
- COc1ccccc1OC1CCN(C(=O)c2cccc(O)c2C)CC1 — lower, -4.78%
- Cc1nc(CN2C(=O)CC3(CCN(C(N)=O)CC3)c3ccccc32)cs1 — lower, -2.82%
- COCCN1CCC(NCc2c(C)nn(C)c2N(C)C)CC1 — lower, -4.85%
- Cc1cc(=O)n2ncnc2n1CC(O)c1ccccc1 (configuration not stated) — lower, -17.2%
- CC(C)NC(=O)CCNC(=O)c1cc(Br)cn1C(C)C — lower, 1.21%
- COc1ccnc(N2CCC(OCCN3CCCCC3)C2)n1 (configuration not stated) — lower, -2.49%
- COc1ccc(NC(=O)Cn2c(=O)nc(N)c3cc(C)sc32)cc1 — lower, -13.1%
- COCCNC(=O)Nc1ccc(CN2CCOC2=O)cc1 — lower, -7%
- COc1ccnc(N2CCN(CC(O)CN3CCOCC3)CC2)n1 (configuration not stated) — lower, -8.1%
- O=C(c1cc(Cl)c2c(c1)OCO2)N1CCN(c2nccs2)CC1 — lower, 1.39%
- CN(CC1(CO)CCC1)c1nc2c(c(=O)[nH]1)Cc1ccccc1OC2 — lower, -10.8%
- COCCn1cc(NC(=O)NC(C)c2ccc(Cl)s2)cn1 (configuration not stated) — lower, -3.34%
- O=C(CN1CCC(c2ccccc2)C1)NCC(F)(F)F (configuration not stated) — lower, 1.22%
- Cc1cnn(CCNCc2c(C)nn(Cc3ccccc3)c2C)c1 — higher, 23.6%
- O=C(Nc1ccc(OC2CCCC2)cc1)C1CCCN1c1nccs1 (configuration not stated) — higher, 26.8%
- CN1CCc2onc(CNc3ncccn3)c2C1 — lower, -25.4%
- CN1CC[C@H]2[C@H](C[C@@H](CN3CCCC3)N2c2nccs2)C1 — lower, -3.73%
- Cc1cnn(C2CN(Cc3noc(C)n3)C2)c1 — lower, -6.5%
- CCCNC(=O)c1ccc(S(=O)(=O)NC2(COC)CCCC2)cc1 — lower, -5.28%
- CC(CC(=O)N1CCCN(Cc2cscn2)CC1)n1cccc1 (configuration not stated) — lower, -6.05%
- Cc1noc(C)c1CN1C[C@H](C)[C@]2(CCN(Cc3cccnc3)C2=O)C1 — lower, -8.9%
- COCC(=O)N1CCn2c(CN3CCN(C)CC3)cnc2C1 — lower, -3.31%
- Cc1cnc(CN(C)C2CCN(Cc3nccn3C)C2)o1 (configuration not stated) — lower, -3.1%
- CCCOCC(=O)Nc1ncc(I)cc1C — lower, 4.92%
- COc1c(CNCc2cnn(C)c2)c(C(C)C)nn1C — lower, 7.69%
- CCN1CCN(C2CCN(Cc3nc(C4CC4)no3)CC2)C1=O — lower, -5.25%
- COc1ccc(F)c(CN2CCC3(CCC(=O)N(CC(N)=O)C3)CC2)c1 — lower, 5.8%
- CN1CCc2ncc(CNc3cc(N(C)C)ncn3)n2CC1 — lower, -11.9%
- CC(C)Cc1noc(CN(C)c2cc(N(C)C)ncn2)n1 — lower, -7.9%
- O=C(NCCO)Nc1cnc2cc(Cl)ccc2c1O — lower, -5.27%
- CN1CCN(C[C@@H]2OC[C@H]3CN(Cc4ccsc4)CC[C@H]32)CC1 — lower, -4.59%
- c1cncc(N2CCOCC3(CCCN(Cc4cccs4)C3)C2)c1 (configuration not stated) — lower, 0.445%
- COCCC(=O)N1C[C@H]2CC[C@@H]1CN(C1Cc3ccccc3C1)C2 — lower, -10%
- CCN1CCN(Cc2csc(C(C)C)n2)CC1 — lower, -8.86%
- Cc1nc(C)c(C(=O)N2CCc3ccc(F)cc3C2C)o1 (configuration not stated) — lower, -0.841%
- COC1CN(C(=O)Cc2cccs2)CCC(=O)N(C)c2ccccc21 (configuration not stated) — lower, 2.17%
- CCN(CCO)C[C@@H]1CN(C(=O)c2sc3ccccc3c2C)C[C@@H]1CO — lower, 8.11%
- CC(C)N(C)S(=O)(=O)N(Cc1cccs1)CC1CCCO1 (configuration not stated) — higher, 37.4%
- CCN(C)CC1CCN(C(=O)Nc2ccc(-c3cc[nH]n3)cc2)C1 (configuration not stated) — lower, 11.5%
- CSc1ccc(CCN2CCN([C@H]3CCCC[C@@H]3O)CC2)cc1 — lower, -8.75%
- CC(C)(C)c1noc(CCC(=O)N2CCN(Cc3ccc(Cl)s3)CC2)n1 — higher, 25.8%
- Cc1nnc(CN2CCN(CC(O)c3ccccc3)CC2)o1 (configuration not stated) — lower, -1.4%
- Cc1nonc1CN(C)Cc1cnn(-c2ccc(Cl)cc2)c1 — lower, -3.48%
- O=c1c(CN2CCCCCC2)coc(O)c1CN1CCCCCC1 — lower, -4.84%
- CN(CC1CCCCO1)S(=O)(=O)c1cccc(C(=O)N2CCOCC2)c1 (configuration not stated) — lower, -10.5%
- Cc1cc(N2CCCC(O)(CN(C)C)CC2)nc(-c2ccccc2)n1 (configuration not stated) — lower, -4.65%
- Cc1csc(N2CCCN(C(=O)C(C)n3cncn3)CC2)n1 (configuration not stated) — lower, 1.24%
- CC1(C(N)=O)CN(S(=O)(=O)c2cccc(F)c2)CCO1 (configuration not stated) — higher, 14.7%
- CCSCCC(=O)N1CCc2[nH]nc(COc3ccccc3)c2C1 — higher, 23.8%
